The results in this text go back to patent US20250002471A1 (Gilead Sciences, Inc., priority 2020, published 2025).

Molecules are shown by their SMILES.

Test [1] deals with T1, TLR7 (Homo sapiens, UniProt Q9NYK1).
T1 construct: lymphocytes, monocytes and dendritic cells that express TLR7, TLR8 and TLR9; endogenous in cells; host or cells: human PBMCs from healthy donors
T1 sequence (Q9NYK1 27-1049): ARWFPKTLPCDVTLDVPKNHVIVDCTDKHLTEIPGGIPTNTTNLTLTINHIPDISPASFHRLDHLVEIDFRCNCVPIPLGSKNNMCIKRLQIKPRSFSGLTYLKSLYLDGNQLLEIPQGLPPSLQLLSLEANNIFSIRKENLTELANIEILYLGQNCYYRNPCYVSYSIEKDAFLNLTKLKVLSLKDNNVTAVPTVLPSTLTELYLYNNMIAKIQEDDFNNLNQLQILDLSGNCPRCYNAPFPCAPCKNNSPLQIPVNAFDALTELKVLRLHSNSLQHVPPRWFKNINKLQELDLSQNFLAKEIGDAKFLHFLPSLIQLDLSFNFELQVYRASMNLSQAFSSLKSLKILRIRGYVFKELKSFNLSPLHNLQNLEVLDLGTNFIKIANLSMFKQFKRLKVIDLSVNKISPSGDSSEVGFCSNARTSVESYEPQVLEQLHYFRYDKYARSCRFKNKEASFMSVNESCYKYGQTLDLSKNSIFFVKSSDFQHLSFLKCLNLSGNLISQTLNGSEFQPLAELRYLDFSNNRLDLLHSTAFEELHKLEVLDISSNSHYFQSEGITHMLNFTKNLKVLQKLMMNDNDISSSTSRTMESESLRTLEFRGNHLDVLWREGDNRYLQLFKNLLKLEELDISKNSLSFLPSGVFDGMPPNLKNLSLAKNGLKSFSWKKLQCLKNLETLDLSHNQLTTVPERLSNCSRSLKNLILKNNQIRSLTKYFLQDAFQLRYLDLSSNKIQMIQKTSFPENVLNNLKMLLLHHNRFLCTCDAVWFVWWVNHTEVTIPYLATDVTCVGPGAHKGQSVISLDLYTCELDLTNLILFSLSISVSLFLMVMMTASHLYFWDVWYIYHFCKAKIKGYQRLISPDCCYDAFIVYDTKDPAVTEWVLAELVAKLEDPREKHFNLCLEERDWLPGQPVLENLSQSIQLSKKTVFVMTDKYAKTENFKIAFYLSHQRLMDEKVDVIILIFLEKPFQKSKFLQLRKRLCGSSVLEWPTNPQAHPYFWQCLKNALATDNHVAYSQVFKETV
Nature of the test: Human PBMC cell-based assay, TLR7 agonist GS-986 stimulation, cytokine (IL-6 and IFNα) readout. To be noted: human PBMCs, GS-986 400 nM, 6 hours; Table 26; read-out: TLR-7 EC50. From the text:
(§1) Human peripheral blood mononuclear cells (PBMCs) consist of lymphocytes, monocytes and dendritic cells that express TLR7, TLR8 and TLR9. These cells respond to TLR7, TLR8 and TLR9 ligand stimulation and produce cytokines and chemokines in vitro and in vivo. Human PBMCs are therefore suitable to be used in a cell-based assay to assess the in vitro potency of a TLR 7, 8, and/or 9 antagonist. The result is expected to be more translatable to the pharmacodynamics response in vivo than cell line-based assays.
(§2) Cryopreserved human PBMCs from healthy donors were thawed and resuspended in RPMI-1640 media with L-glutamine (Corning) supplemented with 10% Fetal Bovine Serum (Hyclone) and 1X Penicillin-Streptomycin (Corning). After counting, the cell density was adjusted to 2 million cells/ml and incubated for 1 hour at 37° C., 5% CO2 for recovery. Following the recovery, the cells were plated by adding 50p per well (100,000 cells) to 384-well cell culture plates (Greiner) containing 250nl of test antagonists in 100% DMSO per well, in a 10 points dose response in quadruplicates. PBMCs were incubated in the presence of test antagonists for one hour at 37° C., 5% CO2 before being stimulated with a TLR7 or TLR9 agonist. GS-986 (Gilead Sciences) was used as the TLR7 agonist at a final concentration of 400 nM. ODN-2216 (InvivoGen) was used as the TLR9 agonist at a final concentration of 3μM. PBMCs were incubated in the presence of the test antagonist and the TLR7 (or TLR9) agonist for an additional 6 hours at 37° C., 5% CO2. At the end of the incubation, the cell culture plates were centrifuged at 500 g for 5 min, and the cell culture supernatant was collected. The level of cytokines (IL-6 and IFNα) in the supernatant was measured by electrochemiluminescence immunoassays (Mesoscale Discovery) following manufacturer's recommended protocols. The level of cytokine measured was plotted against the test antagonist concentration and fitted to a sigmoidal function to determine the EC50, which are shown below in Table 26.

Test [2] deals with T2, TLR9 (Homo sapiens, UniProt Q9NR96).
T2 construct: lymphocytes, monocytes and dendritic cells that express TLR7, TLR8 and TLR9; endogenous in cells; host or cells: human PBMCs from healthy donors
T2 sequence (Q9NR96 26-1032): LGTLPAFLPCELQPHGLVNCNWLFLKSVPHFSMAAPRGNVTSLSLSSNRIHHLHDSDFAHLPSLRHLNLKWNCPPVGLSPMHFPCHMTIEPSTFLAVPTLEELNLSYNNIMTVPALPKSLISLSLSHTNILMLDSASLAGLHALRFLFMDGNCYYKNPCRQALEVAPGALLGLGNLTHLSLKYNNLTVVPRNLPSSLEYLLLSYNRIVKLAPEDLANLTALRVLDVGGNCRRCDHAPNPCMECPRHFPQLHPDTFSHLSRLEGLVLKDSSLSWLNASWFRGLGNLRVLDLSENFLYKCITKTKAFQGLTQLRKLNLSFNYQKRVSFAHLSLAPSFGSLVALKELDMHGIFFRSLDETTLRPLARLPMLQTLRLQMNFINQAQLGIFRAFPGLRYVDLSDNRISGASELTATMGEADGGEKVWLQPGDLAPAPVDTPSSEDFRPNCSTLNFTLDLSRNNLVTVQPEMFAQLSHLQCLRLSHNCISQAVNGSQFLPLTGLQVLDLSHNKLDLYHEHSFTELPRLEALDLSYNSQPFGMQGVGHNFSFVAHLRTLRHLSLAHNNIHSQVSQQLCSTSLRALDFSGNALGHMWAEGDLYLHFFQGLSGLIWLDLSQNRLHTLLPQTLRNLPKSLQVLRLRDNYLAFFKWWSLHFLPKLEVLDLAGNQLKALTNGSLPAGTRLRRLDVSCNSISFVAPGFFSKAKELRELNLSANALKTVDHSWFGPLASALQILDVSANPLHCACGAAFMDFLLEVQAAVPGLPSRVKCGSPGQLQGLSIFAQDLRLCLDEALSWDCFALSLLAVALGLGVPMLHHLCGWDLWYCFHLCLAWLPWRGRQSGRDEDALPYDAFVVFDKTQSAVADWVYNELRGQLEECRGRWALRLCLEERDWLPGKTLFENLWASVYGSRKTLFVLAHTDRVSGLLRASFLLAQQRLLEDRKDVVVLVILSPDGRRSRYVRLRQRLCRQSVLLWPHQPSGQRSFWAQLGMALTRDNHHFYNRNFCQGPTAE
Nature of the test: Human PBMC cell-based assay, TLR9 agonist ODN-2216 stimulation, cytokine (IL-6 and IFNα) readout. To be noted: human PBMCs, ODN-2216 3 μM, 6 hours; Table 26; read-out: TLR-9 EC50.
From the text: as §1, §2

As usually defined, the EC50 is the concentration that produces a half-maximal response. For the molecule `Cc1cc(-c2[nH]c3cc(C4CCNCC4)ccc3c2C(C)C)cc(C)n1` [Example 50, 2-(2,6-dimethylpyridin-4-yl)-3-isopropyl-6-(piperidin-4-yl)-1H-indole], the figures for the half-maximal effective concentration (EC50) in test [1] and in test [2] were 222 nM and 784 nM, respectively.
The matching figures for `Cc1c(-c2cc(C)c3ncnn3c2)[nH]c2cc(C3CCNCC3)ccc12` [Example 51]: 35.8 nM and 1670 nM.
The matching figures for `CCc1c(-c2cc(C)c3ncnn3c2)[nH]c2cc(C3CCNCC3)ccc12` [Example 52]: 12 nM and 1920 nM.
The matching figures for `Cc1cc(-c2[nH]c3cc(C4CCNC4)ccc3c2C)cc(C)n1` (centres unmarked) [Example 54]: 1390 nM and 69.4 nM.
In the case of `COc1cc(-c2ccc3c(C)c(-c4cc(C)nc(C)c4)[nH]c3c2)ccn1` [Example 56, 2-(2,6-dimethylpyridin-4-yl)-6-(2-methoxypyridin-4-yl)-3-methyl-1H-indole], the EC50 in test [1] turned out to be 374 nM; in test [2], 3040 nM.
The matching figures for `Cc1cc(-c2[nH]c3cc(-c4ccn5ccnc5c4)ccc3c2C)cc(C)n1` [Example 57]: 200 nM and 306 nM.
The matching figures for `Cc1cc(-c2[nH]c3cc(-c4ccn5ncnc5c4)ccc3c2C)cc(C)n1` [Example 58]: 373 nM and 1130 nM.
For `Cc1cc(-c2[nH]c3cc(-c4ccnc(N5CCOCC5)c4)ccc3c2C)cc(C)n1` [Example 59, 4-(4-(2-(2,6-dimethylpyridin-4-yl)-3-methyl-1H-indol-6-yl)pyridin-2-yl)morpholine] the same measures were 809 nM and 1780 nM.
As to `Cc1cc(-c2[nH]c3cc(-c4ccnc(N5CCN(C)CC5)c4)ccc3c2C)cc(C)n1` [Example 60, 2-(2,6-dimethylpyridin-4-yl)-3-methyl-6-(2-(4-methylpiperazin-1-yl)pyridin-4-yl)-1H-indole], the EC50 in test [1] was 270 nM; in test [2], 110 nM.
The matching figures for `Cc1cc(-c2[nH]c3cc(-c4ccnc(N(C)C)c4)ccc3c2C)cc(C)n1` [Example 61]: 886 nM and 601 nM.
For `Cc1cc(-c2[nH]c3cc(-c4cccc5c4CCNC5)ccc3c2C)cc(C)n1` [Example 62, 5-(2-(2,6-dimethylpyridin-4-yl)-3-methyl-1H-indol-6-yl)-1,2,3,4-tetrahydroisoquinoline] the same measures were 607 nM and 180 nM.
For `Cc1cc(-c2[nH]c3cc(-c4ccc(N5CCNCC5)nc4)ccc3c2C2CC2)cc(C)n1` [Example 63, 3-cyclopropyl-2-(2,6-dimethylpyridin-4-yl)-6-(6-(piperazin-1-yl)pyridin-3-yl)-1H-indole] the same measures were 4.8 nM and 189 nM.
For `Cc1cc(-c2[nH]c3cc(-c4cnc(N5CCNCC5)nc4)ccc3c2C)cc(C)n1` [Example 65], the half-maximal effective concentration (EC50) in test [1] amounted to 15.3 nM; in test [2] it was 63.2 nM.
The matching figures for `Cc1cc(-c2[nH]c3cc(-c4ccc(N5CCNCC5)cc4)ccc3c2C)cc(C)n1` [Example 66]: 83.2 nM and 51.2 nM.
With `Cc1cc(-c2[nH]c3cc(-c4cnc(N5CCNCC5)nc4)ccc3c2C2CC2)cc(C)n1` [Example 67], the EC50 in test [1] is 3 nM; in test [2] it was 199 nM.
On to `Cc1cc(-c2[nH]c3cc(-c4ccc(S(=O)(=O)N5CCNCC5)cc4)ccc3c2C)cc(C)n1` [Example 68], for which the EC50 in test [1] came out at 324 nM; in test [2] it was 93.2 nM.
For `Cc1cc(-c2[nH]c3cc(-c4cccc(S(=O)(=O)N5CCNCC5)c4)ccc3c2C)cc(C)n1` [Example 69] the same measures were 209 nM and 38.4 nM.
Take `CCc1c(-c2cc(C)nc(C)c2)[nH]c2cc(-c3ccc(N4CCNCC4)nc3)ccc12` [Example 70, 2-(2,6-dimethylpyridin-4-yl)-3-ethyl-6-(6-(piperazin-1-yl)pyridin-3-yl)-1H-indole]: the values for the concentration giving a half-maximal response (EC50) in test [1] and in test [2] were 6.7 nM and 187 nM, respectively.
The matching figures for `Cc1cc(-c2[nH]c3cc(-c4cn(C5CCNCC5)nn4)ccc3c2C)cc(C)n1` [Example 72, 2-(2,6-dimethylpyridin-4-yl)-3-methyl-6-(1-(piperidin-4-yl)-1H-1,2,3-triazol-4-yl)-1H-indole]: 92 nM and 232 nM.
As for `Cc1cc(-c2[nH]c3cc(-c4ccc(N5CCNCC5)nc4)ccc3c2C)ccn1` [Example 73, 3-methyl-2-(2-methylpyridin-4-yl)-6-(6-(piperazin-1-yl)pyridin-3-yl)-1H-indole], the EC50 in test [1] was 33.3 nM; in test [2], 102 nM.
The matching figures for `Cc1cc(-c2[nH]c3cc(-c4ccc(N5CCNCC5)nc4)ccc3c2C)c(C)cn1` [Example 74]: 14.3 nM and 1250 nM.
For `Cc1c(-c2ccnc(C#N)c2)[nH]c2cc(-c3ccc(N4CCNCC4)nc3)ccc12` [Example 75] the same measures were 77.3 nM and 499 nM.
The matching figures for `Cc1cc(-c2[nH]c3cc(-c4ccc(N5CCNCC5)nc4)ccc3c2C)cnn1` [Example 76]: 63 nM and 421 nM.
Take `Cc1cc(-c2[nH]c3cc(-c4ccc(N5CCNCC5)nc4)ccc3c2C)cc(C#N)n1` [Example 77]: the EC50 in test [1] is 10.5 nM; in test [2], 768 nM.
The matching figures for `Cc1cc(-c2[nH]c3cc(-c4ccc(N5CCNCC5)nc4)ccc3c2C)cc(N)n1` [Example 78]: 33.1 nM and 121 nM.
